Measurements reported in ChEMBL document CHEMBL3351656, “Discovery of novel 2-[2-(3-hydroxy-pyridin-2-yl)-thiazol-4-yl]-acetamide derivatives as HIF prolyl 4-hydroxylase inhibitors; SAR, synthesis and modeling evaluation” (Bioorg Med Chem Lett, 2014).
Values after ≈ are worked out from the molar mass of the structure shown.

Experiment: Solubility of the compound at pH 7.4
Assay type: physicochemical
Details: buffer

Compound	solubility [µg/mL]
N#Cc1cnc(-c2nc(CC(=O)NCC(=O)O)cs2)c(O)c1	106 (≈ 332 µM)
CC(C)(NC(=O)Cc1csc(-c2ncc(C#N)cc2O)n1)C(=O)O	28.9 (≈ 83.4 µM)
N#Cc1cnc(-c2nc(CC(=O)N[C@H](C(=O)O)c3ccccc3)cs2)c(O)c1	> 195
N#Cc1cnc(-c2nc(CC(=O)N[C@@H](C(=O)O)c3ccccc3)cs2)c(O)c1	> 195
N#Cc1cnc(-c2nc(CC(=O)N[C@@H](CO)c3ccccc3)cs2)c(O)c1	> 188
N#Cc1cnc(-c2nc(CC(=O)N3CCCC3)cs2)c(O)c1	108 (≈ 342 µM)
CCN(CC)CCNC(=O)Cc1csc(-c2ncc(C#N)c(C)c2O)n1	> 185
CCN(CC)CCNC(=O)Cc1nc(-c2ncc(C#N)c(C)c2O)sc1C	85.9 (≈ 222 µM)

The next lines start with the values.

solubility [µg/mL]	Compound
78.4 (≈ 207 µM)	Cc1sc(-c2ncc(C#N)cc2O)nc1CC(=O)NCCc1ccccn1
24.1 (≈ 68.8 µM)	N#Cc1cnc(-c2nc(CC(=O)NCc3ccccc3)cs2)c(O)c1
> 188	N#Cc1cnc(-c2nc(CC(=O)N[C@H](CO)c3ccccc3)cs2)c(O)c1
13.6 (≈ 37.3 µM)	N#Cc1cnc(-c2nc(CC(=O)NCCc3ccccc3)cs2)c(O)c1
> 181	N#Cc1cnc(-c2nc(CC(=O)NCCc3ccccn3)cs2)c(O)c1
117 (≈ 265 µM)	N#Cc1cnc(-c2nc(CC(=O)NCCc3ccccn3)c(-c3ccccc3)s2)c(O)c1
11.2 (≈ 29.5 µM)	Cc1c(C#N)cnc(-c2nc(CC(=O)NCCc3ccccn3)cs2)c1O
6.4 (≈ 16.3 µM)	Cc1sc(-c2ncc(C#N)c(C)c2O)nc1CC(=O)NCCc1ccccn1
0.74 (≈ 1.62 µM)	Cc1c(C#N)cnc(-c2nc(CC(=O)NCCc3ccccn3)c(-c3ccccc3)s2)c1O
13.9 (≈ 43.9 µM)	CCNC(=O)Cc1nc(-c2ncc(C#N)c(C)c2O)sc1C
